Measurements taken from patent publication US6713048B2, “Δ9 tetrahydrocannabinol (Δ9 THC) solution metered dose inhalers and methods of use” (Virginia Commonwealth University, priority 1998, dated 2004).
“Also recorded” adds a separate entry of the source. Like-named read-outs stand apart in the source and are kept apart here.

Columns and labels:
[1] = tested on: healthy and asthmatic subjects; settings: aerosolized Δ^9-THC from MDI, cited from earlier work
[2] = MDI fine particle dose (Andersen Cascade Impactor); type: physicochemical; settings: HFA 134a-ethanol MDI; 40° C., 82% relative humidity, 28 days
Method: A Δ^9 THC MDI was formulated and the physical properties of the aerosolized drug characterized. The mass of drug metered by the metering valve was determined following a single actuation (metered dose). The mass of drug delivered (emitted dose) was determined. The mass of particles with an aerodynamic diameter less than 4.7 μm was determined.
Appearance, metered dose reproducibility, emitted dose and particle size distribution of the Δ^9 THC MDI were investigated, before and after storage in an environment maintained at 40° C. and 82% relative humidity for a 28 day period. The mass of drug metered by the metering valve (metered dose, n=10) was determined by collecting single actuations directly from the valve in a puff absorber, using the methods of Byron, 1994.
THC was analyzed by LC-UV detection at 280 nm using a 75:25 acetonitrile: 1% acetic acid mobile phase for Δ^9-THC detection. A standard reverse phase C18 column was used.

asthmatic patients = settings: low concentration aerosol; cited from earlier work
[3] = Apparent solubility of Δ^9 THC in ethanol/HFA propellant blends; type: physicochemical
Excerpt: When the propellant is a hydrofluoroalkane, it has been discovered that the propellant may be used with or without a solvent such as ethanol. Higher percentages of solvent generally allow higher levels of dissolution of Δ^9 THC. However, higher percentages of solvent also cause droplet size to increase. […] Within this range of percentages, pharmaceutically useful concentrations of Δ^9 THC can be achieved and droplet size is still small enough (<5.8 um) to provide excellent aerosol delivery of the drug. While these ratios reflect preferred embodiments of the invention, it will be recognized by those of skill in the art that the exact ratio of propellant to solvent (e.g. ethanol) may vary according to the desired final concentration of Δ^9 THC and droplet size. Any ratio of propellant to solvent that results in appropriate sized droplets and adequate dissolution of the Δ^9 THC may be used in the practice of this invention, and this will generally be in the range of from 100 to 80% propellant and 0 to 20% solvent. It is expected that a wide variety of solvents, such as ethanol, propanol, propylene glycol, glycerol, polyethylene glycol, etc. may be used in the preparation of formulations contemplated by this invention.

in vivo = settings: for concentration at 20 min: brain
Method: Whether inhalation exposure to Δ^9 THC aerosol would elicit pharmacological effects indicative of cannabinoid activity in mice (Compton, D. R., Rice, K. C., De Costa, B. R., Rzdan, R. K., Melvin, L. S., Johnson, M. R., Martin, B. R., Cannabinoid structure-activity relationships: Correlation of receptor binding and in vivo activities, J Pharmacol Exp Ther, 265:218-226 (1993); Little et al., 1988) was determined.
Blood and brain levels of Δ^9-THC were determined as follows. Extraction and LC-MS quantification of Δ^9-THC from whole blood and brain tissue were modified from Lichtman, A. H., Poklis, J. L., Wilson, D. M., Martin, B. R., The pharmacological activity of inhalation exposure to marijuana smoke in mice, Drug Alc Depend, 63:107-116 (2001). Particularly, THC and 2H^3-THC were extracted from brain material which contains a high degree of lipids. Acetonitrile was added to the pelletized solids and stored in a freezer overnight to separate the acetonitrile layer (which contained THC/2H^3-THC) from the aqueous layers. The following day the acetonitrile layer was removed. In the Lichtman et al., study, 2 ml of 9:1 NaOH was added and the sample was vortexed. Four ml of 9:1 hexane:ethyl acetate was added and the sample was vortexed and spun […] for 30 minutes. The vials were then centrifuged at 4,000 rpm […] for 10 minutes. The organic layer was removed and evaporated. Upon drying, a derivatizing agent was added and the sample was vortexed, and each sample analyzed by GC/MS. In the present experimentation, the acetonitrile was instead evaporated to dryness under nitrogen. The material was then resolubilized in 0.1 ml methanol. LC-MS identification was used to quantify Δ^9-THC/2H^3-THC in blood and brain matrices. […] Fifty ng of ^2H3-THC (Radian Corporation, Austin, Tex.) was added to the blood sample, brain homogenate, and calibrators as an internal standard. Following an equilibration period, 2.5 ml of cold acetonitrile (HPLC grade, Fisher Scientific, Raleigh, N.C.) was added drop-wise while vortexing. The samples were then centrifuged (Precision Vari-Hi-Speed Centricone, Precision Scientific Co., Chicago, Ill.) at 2500 rpm for 15 minutes to pelletize solids, then stored in the freezer (−20° C.) overnight, allowing the acetonitrile layer to separate from the aqueous layers. The acetonitrile layer was then removed and evaporated to dryness under nitrogen. The Δ^9-THC/^2H3-THC was then resolubilized in 0.1 ml methanol (HPLC grade, Fisher Scientific).
LC-MS identification was used for quantification of Δ^9-THC and ^2H3-THC in blood and brain matrices using an 85:15 methanol: 1% glacial acetic acid (0.1% formic acid) mobile phase. A guard column was used inline with the standard reverse phase C18 column. The mass spectrometer was run in APCI+mode. Ions analyzed in single ion monitoring mode were 315 for Δ^9-THC and 318 for ^2H3-THC. A calibration curve was constructed for each assay based on linear regression using the peak-area ratios of Δ^9-THC to ^2H3-THC of the extracted calibration samples.

[4] = cited from earlier work
[5] = tested on: Pain due to advanced cancer; settings: 10 and 20 mg THC, 60 and 120 codeine; 34 patients; cited from earlier work
[6] = intravenous, bolus, 5 mg (Ohlsson et al., 1980)
[7] = oral, in cookies, 20 mg (Ohlsson et al., 1980)
[8] = oral, sesame oil in gelatin capsules, 2.5, 5, or 10 mg (PDR, 1995)
[9] = smoking, 13 mg (Ohlsson et al., 1980)

CCCCCc1cc(O)c2c(c1)OC(C)(C)[C@@H]1CCC(C)=C[C@@H]21 (relative stereo) [Δ^9 THC, (6aR-trans)-6a,7,8,10a-tetrahydro-6,6,9-trimethyl-3-pentyl-6H-dibenzo[b,d]-pyran-1-ol]
systemic side effects (increased heart rate, subjective reports of being 'high') ([1]; healthy patients, at higher doses): substantial systemic side effects | bronchial effect in healthy patients ([1]; healthy patients): bronchodilation was seen | bronchial effect in asthmatic patients ([1]; some asthmatic patients): bronchoconstriction occurred | deterioration/degradation of Δ^9-THC content on storage [2]: no deterioration; also recorded: no significant degradation | bronchial and systemic effects (asthmatic patients): bronchodilation without systemic side effects | Apparent Solubility Mean (±SD) ([3]; 5% Ethanol/95% HFA 134a): 1.585% w/w | Apparent Solubility Mean (±SD) ([3]; 5% Ethanol/95% HFA 227): 1.339% w/w | Apparent Solubility Mean (±SD) ([3]; 10% Ethanol/90% HFA 227): 3.240% w/w | Apparent Solubility Mean (±SD) ([3]; 10% Ethanol/90% HPA 134a): 3.511 % w/w | Apparent Solubility Mean (±SD) ([3]; 15% Ethanol/85% HFA 134a): 4.883% w/w | Apparent Solubility Mean (±SD) ([3]; 15% Ethanol/85% HFA 227): 5.94 % w/w | Apparent Solubility Mean (±SD) ([3]; 100% HFA 134a, n = 5): 0.224% w/w | Apparent Solubility Mean (±SD) ([3]; 100% HFA 227): 0.147 % w/w | brain levels relative to blood levels (in vivo; following inhalation, mice): roughly equivalent; also recorded: equivalent concentrations | brain levels higher than those found in blood (in vivo; i.v. administration, mice): approximately two to three | Kp at 20 min (in vivo; mouse, brain relative to whole blood, iv): 2 to 3 | concentration at 20 min (in vivo; mouse, inhaled, 20 actuations): 340 ± 36 ng/g | concentration at 20 min (in vivo; mouse, inhaled, 40 actuations): 791 ± 94 ng/g | concentration at 20 min (in vivo; mouse, inhaled, 60 actuations): 890 ± 151 ng/g | concentration at 20 min (in vivo; mouse, iv, 1 mg/kg): 307 ± 28 ng/g | concentration at 20 min (in vivo; mouse, iv, 3 mg/kg): 854 ± 42 ng/g | concentration at 20 min (in vivo; mouse, iv, 10 mg/kg): 3310 ± 190 ng/g | % Dose in Plasma [4, 6]: 100% | Onset of Pharmacological Action [4, 6]: 10 min | Peak Plasma Levels (time) [4, 6]: 3 min | % Dose in Plasma [4, 7]: 4 to 12% | Onset of Pharmacological Action [4, 7]: 120-180 min | Peak Plasma Levels (time) [4, 7]: 60 to 90 min | % Dose in Plasma [4, 8]: 10 to 20% | Onset of Pharmacological Action [4, 8]: 0.5 to 1 hour | Peak Plasma Levels (time) [4, 8]: 120 to 480 min | % Dose in Plasma ([4]; smoking (THC lost to side stream smoke and pyrolysis), 13 mg (Ohlsson et al., 1980)): 8 to 24% | Onset of Pharmacological Action [4, 9]: 10 min | Peak Plasma Levels (time) [4, 9]: 3 min | analgesic potency compared with codeine [5]: greater potency than | degree of analgesia compared with codeine [5]: THC produced a similar
